Publication PMC12040169 (PLOS Biology, 2025)

Experiment: in vitro
Details: human, hela cells, % viability

Row | Structure (SMILES) | viability at 28.5 h, 10 µM
1 | Cc1ccc(S(=O)(=O)Cc2cccc(C(=O)N3CCN(Cc4ccccc4)CC3)c2)cc1 [CBK269596] | 93%
2 | NS(=O)(=O)c1ccc(CCNC(=O)COc2ccc(Cl)cc2Cl)cc1 [CBK265694] | 90.2%
3 | O=S(=O)(c1ccccc1)C1CC1 [CBK023184] | 89%
4 | Cc1nc(C)c(C(=O)N2CCC(c3cc4c(C)cccc4cn3)CC2)o1 [CBK285186] | 108%
5 | O=C(Cn1cnc2ccccc2c1=O)Nc1cccc(-c2cnc3ccccc3n2)c1 [CBK270020] | 83.7%
6 | COC(=O)c1ccsc1NS(=O)(=O)c1cc(F)c(Br)cc1F [CBK039068] | 96.5%
7 | O=C1CCC(=O)N1CCOc1nccnc1OC1CCN(Cc2ccc(Cl)cc2)CC1 [CBK084338] | 108%
8 | CC(C)(C)C1=CC2=NC3(CCOCC3)[C@@H]3C[C@@H](O)[C@@H](O)[C@@H]3N2O1 [CBK303244] | 90.1%
9 | O=C(O)CCCC(=O)Nc1ccccc1C(=O)NCc1ccco1 [CBK299840] | 85.8%
10 | CCN1CCc2cc(-c3cncn3CC(=O)NC(C)(C)C)ccc21 [CBK281698] | 94.8%
11 | Cc1cc2nccc(C3CCCN(C(=O)c4ccccc4F)C3)n2n1 (centres unmarked) [CBK284184] | 97.2%
12 | CCOc1ccc(CC(=O)NN2CCOCC2)cc1OCC [CBK268150] | 102%
13 | CN1CC(c2ccccc2)CC2(CCN(CCCn3cnnn3)CC2)C1 (centres unmarked) [CBK306522] | 95%
14 | O=C(O)C1=NN(c2ccccc2)C(=O)CC1 [CBK270176] | 84.4%
15 | CCc1nn(C)cc1CNC1CCCN(c2ccc(C#N)cc2)C1=O (centres unmarked) [CBK304176] | 96.4%
16 | CC(C)c1cccc(C(C)C)c1OCC(O)CN1CCCCC1 (centres unmarked) [CBK003079T] | 94.6%
17 | O=C(CN(Cc1ccccc1Cl)S(=O)(=O)c1ccc(Cl)cc1)NC1CCCCC1 [CBK264659] | 97.5%
18 | CCN1C(=O)COC[C@@H]1[C@H](O)c1ccc(NC(=O)Cc2ccc(OC)cc2)cc1 [CBK289676] | 90.2%
19 | Cc1ccc(C(=O)N[C@@H]2C[C@H](C)CC[C@H]2C(C)C)cc1C [CBK085823] | 87.1%
20 | N#C/C(=C/c1cn(CCC(N)=O)c2ccccc12)c1ccc2c(c1)OCO2 [CBK267319] | 90.2%
21 | CSCCCNC(=O)N1CCN(Cc2ccccc2)CC1 [CBK155623] | 89.9%
22 | Cc1ccc(-c2nnc(C3CCCN(C(=O)C(C)C)C3)o2)s1 (centres unmarked) [CBK283058] | 96.9%

Row | Structure (SMILES) | viability at 28.5 h, 10 µM
23 | COCCOc1nccnc1N1CCNCC1 [CBK001903G] | 103%
24 | O=C(CCCn1ccnc1)Nc1ccc(OC2CCCC2)cc1 [CBK281986] | 92.3%
25 | CC(C)N(CCC(c1ccccc1)c1cc(Br)ccc1OCc1ccccc1)C(C)C (centres unmarked) [CBK017656] | 79.4%
26 | CC(C)(C)c1cc(CNCCS(=O)(=O)O)c(O)c(C(C)(C)C)c1 [CBK261098] | 107%
27 | CC(C)C(NC(=O)c1cccc(-n2cnnc2)c1)c1cccs1 (centres unmarked) [CBK282442] | 111%
28 | Cc1nc(C)n(C(C)CNC(=O)Cn2ccc3ccc(F)cc32)n1 (centres unmarked) [CBK282612] | 95.5%
29 | Cc1cc(OC(C)C(=O)Nn2cnnc2)ccc1Cl (centres unmarked) [CBK269690] | 98.1%
30 | N#Cc1ccc(-c2cnc(N)c(-c3ccc(NC(=O)CCN4CCCCC4)cc3)n2)cc1 [CBK116418] | 85%
31 | c1ccc(COc2ccc(-n3cnnn3)cc2)nc1 [CBK288196] | 83.5%
32 | CN1CCN(C(=O)c2cnn(-c3ccccc3)c2NC(=O)c2ccc(F)cc2)CC1 [CBK265198] | 88.3%
33 | CN(Cc1ccccc1)C(=O)CCNS(=O)(=O)c1ccccc1 [CBK268585] | 103%
34 | COc1cc(NC(=O)N2CCNC(=O)C2)cc(OC)c1OC [CBK155875] | 104%
35 | COc1cccc(C(=O)N2CCOC(c3cc(C(=O)NCC(C)C)c4ccccc4n3)C2)c1 (centres unmarked) [CBK285894] | 97.4%
36 | CS(=O)(=O)Nc1ccc(C(=O)Nc2ccc(S(=O)(=O)Nc3nccs3)cc2)cc1 [CBK267856] | 97.3%
37 | CC(NC(=O)N1CCSCC1)c1cccc(Br)c1 (centres unmarked) [CBK306475] | 86.2%
38 | CCn1ncc(S(=O)(=O)Nc2ccc3c(c2)cc(C)n3C)c1C [CBK282761] | 95.6%
39 | CS(=O)(=O)Nc1cc2cccnc2c(-c2ccc3c(c2)CCO3)n1 [CBK085705] | 101%
40 | CCOC(=O)c1[nH]c2ccccc2c1NC(=O)c1ccc(Cl)cc1Br [CBK160140] | 96.7%
41 | NCCSC1CC(=O)N(Cc2ccc(F)cc2)C1=O (centres unmarked) [CBK269025C] | 101%
42 | Cc1ccccc1Cc1cccc(C2CCN(C(=O)c3ccc(F)cc3)CC2)n1 [CBK286140] | 88.4%
43 | COCCN(CCOC)c1ncc(C#N)cc1Cl [CBK306227] | 92.6%
44 | COC(=O)CCCC(=O)n1ccn(-c2cccc(C(F)(F)F)c2)c1=O [CBK106580] | 87.6%

Row | Structure (SMILES) | viability at 28.5 h, 10 µM
45 | COc1ccc(C(C)(C)C)cc1NC(=O)c1ccncc1 [CBK288248] | 92%
46 | CCOC(=O)N1CCN(c2cc3[nH]c(S)nc3cc2F)CC1 [CBK288444] | 89.9%
47 | COc1ccccc1OC(=O)c1ccccc1Cl [CBK090164] | 81.4%
48 | COc1cc(C(=O)N2CCC3(CC2)CC(=O)c2cc(-c4cccc(C)c4)ccc2O3)cc(OC)c1C [CBK170341] | 87.7%
49 | COc1ccc(C(=O)NCC(=O)NCCOC(=O)c2c(-c3c(F)cccc3Cl)noc2C)cc1 [CBK007386] | 99.4%
50 | N=C(N)NCCc1c[nH]c2ccccc12 [CBK024011G] | 107%
51 | CC(C)C(C(=O)Nc1ccc(S(=O)(=O)Nc2nccs2)cc1)N1C(=O)c2ccccc2C1=O (centres unmarked) [CBK265707] | 107%
52 | Nc1cccc(-c2nc(-c3cccnc3)cnc2N)c1 [CBK063906] | 95.3%
53 | CC(NC(=O)C1CCN(CCCN(C)S(C)(=O)=O)CC1)c1cccc2ccccc12 (centres unmarked) [CBK148651] | 104%
54 | Fc1ccc(-c2ccc(CNCCCN3CCOCC3)o2)cc1 [CBK278199C] | 84.5%
55 | COc1ccc(C(=O)Nc2ccc(CC(=O)O)cc2)cc1 [CBK269736] | 95%
56 | Cc1ccc([N+](=O)[O-])cc1NC(=O)c1cc(S(=O)(=O)N(C)C)c(Cl)cc1Cl [CBK266764] | 105%
57 | Cc1ccccc1C(=O)N/N=C/c1ccc(Sc2nnnn2-c2ccccc2)o1 [CBK263259] | 114%
58 | CC(C)(C)OC(=O)NCc1ccc2cccc(OCCO)c2n1 [CBK000585] | 83.3%
59 | CCN1CCN(c2ccc([N+](=O)[O-])cc2S(=O)(=O)N2CCOCC2)CC1 [CBK264410] | 113%
60 | O=C(O)c1cccc2cccc(-c3cccc4cccc(C(=O)O)c34)c12 [CBK015494] | 109%
61 | Cc1cc(-c2nc3ncccc3o2)ccc1NC(=O)c1ccc2c(c1)OCCO2 [CBK270104] | 94.1%
62 | Cc1cccc(-n2c(C#N)c(O)c3ccccc32)c1C [CBK115319] | 106%
63 | CC(C)c1ccc(/C=C/C(=O)NCc2cccs2)cc1 [CBK149587] | 100%
64 | Cc1ccn(CCC(=O)N2CCCC(c3cc4cccnc4[nH]3)C2)n1 (centres unmarked) [CBK284927] | 99.7%
65 | c1ccc(Cn2cncc2-c2cncn2CCCN2CCCCC2)cc1 [CBK281490] | 114%
